Laboratory results from PubChem BioAssay AID1996.
In brackets after ≈: the same amount, converted by molar mass.

Details: buffer; pH 7.4; 200.0 µM

Question: For `CC(C)c1ccccc1NC(=O)CN1C(=O)c2ccccc2C1=O`, which solubility kinetic is on record?
Answer: 1.6 µg/mL (≈ 4.96 µM)

Question: For `COc1ccc2[nH]c3c(=O)n(CCN4CCOCC4)cnc3c2c1`, which solubility kinetic is on record?
Answer: > 49.3 µg/mL

Question: With `O=C(CNS(=O)(=O)c1ccccc1)N1CCCC1` as the molecule, how does the solubility kinetic read?
Answer: > 40.2 µg/mL

Question: Which solubility kinetic does the source give for `N#Cc1ccc(OCC(=O)NCCCn2ccnc2)cc1` here?
Answer: > 42.6 µg/mL

Question: With `COC(=O)c1cc(C(C)=O)c(C)[nH]c1=O` as the molecule, how does the solubility kinetic read?
Answer: > 31.4 µg/mL

Question: For `O=S(=O)(Cc1noc(-c2ccc(OC(F)(F)F)cc2)n1)c1ccc(F)cc1`, which solubility kinetic is on record?
Answer: < 0.4 µg/mL

Question: For `CCN(CC)C(=S)Nc1ccc(C(=O)OC)cc1`, which solubility kinetic is on record?
Answer: > 40 µg/mL

Question: With `CC1NC(C)(C)Cc2c1ccc1ccccc21.Cl` (centres undefined) as the molecule, how does the solubility kinetic read?
Answer: 37.6 µg/mL

Question: With `O=C(CSc1nccc(=O)[nH]1)NCc1ccc(Cl)cc1` as the molecule, how does the solubility kinetic read?
Answer: > 46.5 µg/mL

Question: Which solubility kinetic does the source give for `O=C(COC(=O)c1cccc(OC(F)F)c1)NCC1CCCO1` (centres undefined) here?
Answer: > 49.4 µg/mL

Question: For `Cc1ccccc1OCC1Cn2c(nc3c2c(=O)n(C)c(=O)n3C)O1` (centres undefined), which solubility kinetic is on record?
Answer: > 51.4 µg/mL

Question: With `CN(C1CCCCC1)S(=O)(=O)c1ccc2[nH]c(=O)oc2c1` as the molecule, how does the solubility kinetic read?
Answer: > 46.6 µg/mL

Question: For `COc1ccc(C(=O)NCCc2c[nH]c3ccccc23)cc1[N+](=O)[O-]`, which solubility kinetic is on record?
Answer: 10.8 µg/mL (≈ 31.8 µM)

Question: Which solubility kinetic does the source give for `O=C1Nc2ccccc2/C1=C/c1nc2ccccc2c(=O)n1-c1ccc(O)cc1` here?
Answer: 1.9 µg/mL (≈ 4.98 µM)

Question: Which solubility kinetic does the source give for `NS(=O)(=O)c1ccc(O)c(NC(=O)c2ccc([N+](=O)[O-])o2)c1` here?
Answer: > 49.1 µg/mL

Question: With `N#Cc1ccc(Cn2cc(C=O)c3ccccc32)cc1` as the molecule, how does the solubility kinetic read?
Answer: 4 µg/mL (≈ 15.4 µM)

Question: For `COc1ccc(CCNC(=O)C(=O)c2c(C)[nH]c3ccccc23)cc1`, which solubility kinetic is on record?
Answer: 0.5 µg/mL (≈ 1.49 µM)

Question: Which solubility kinetic does the source give for `Cc1nn(C)c(C)c1NC(=O)CCl.Cl` here?
Answer: > 35.7 µg/mL

Question: Which solubility kinetic does the source give for `CN(C(=O)c1cc2ccccc2o1)c1c(N)n(Cc2ccccc2)c(=O)[nH]c1=O` here?
Answer: > 58.6 µg/mL

Question: With `COC(=O)c1ccc(Oc2nc(NC(C)C)nc(NC(C)C)n2)cc1` as the molecule, how does the solubility kinetic read?
Answer: 1.4 µg/mL (≈ 4.05 µM)

Question: For `COc1ccc(S(=O)(=O)N2CCc3ccccc3C2)cc1C(=O)O`, which solubility kinetic is on record?
Answer: 48.4 µg/mL (≈ 139 µM)

Question: For `CSCCC(NC(=O)c1ccco1)C(=O)Nc1ccncc1` (centres undefined), which solubility kinetic is on record?
Answer: > 47.9 µg/mL

Question: Which solubility kinetic does the source give for `CCOC(=O)c1ccc(N2C(=O)C=C(N3CCOCC3)C2=O)cc1` here?
Answer: > 49.6 µg/mL

Question: Which solubility kinetic does the source give for `O=C1CCc2ccccc2N1Cc1ccccc1` here?
Answer: 32.5 µg/mL (≈ 137 µM)

Question: Which solubility kinetic does the source give for `CN(C(=O)c1ccc(Oc2ccc([N+](=O)[O-])cc2)cc1)C1CCCCC1` here?
Answer: 1 µg/mL (≈ 2.82 µM)

Question: With `CCCCCCCN1C2=NCCN2c2ccccc21.Cl` as the molecule, how does the solubility kinetic read?
Answer: > 44.1 µg/mL

Question: With `CN(C(=O)C(Cl)Cl)C1CC2C=CC1C2` (centres undefined) as the molecule, how does the solubility kinetic read?
Answer: 30.7 µg/mL (≈ 131 µM)

Question: Which solubility kinetic does the source give for `CC(C)c1ccccc1NC1=NCCCS1` here?
Answer: 35 µg/mL (≈ 149 µM)

Question: Which solubility kinetic does the source give for `CNC(=S)Nc1cc(C(=O)N2CCCC2)ccc1N1CCCC1` here?
Answer: > 49.9 µg/mL

Question: Which solubility kinetic does the source give for `COc1cccc(N2CC(O)Cn3c2nc2c3c(=O)[nH]c(=O)n2C)c1` (centres undefined) here?
Answer: > 51.5 µg/mL

Question: For `CCOC(=O)c1cc(NC(=O)c2cccnc2)ccc1N1CCOCC1`, which solubility kinetic is on record?
Answer: > 53.3 µg/mL

Question: Which solubility kinetic does the source give for `O=S(=O)(Nc1cccnc1Cl)c1ccc(-c2ccccc2)cc1` here?
Answer: 47.7 µg/mL (≈ 138 µM)

Question: For `O=C1N=c2ccccc2=C1c1sc(=S)n(-c2ccc(O)cc2)c1O`, which solubility kinetic is on record?
Answer: 0.8 µg/mL (≈ 2.26 µM)

Question: Which solubility kinetic does the source give for `CCN(CC)S(=O)(=O)c1ccc(N2CCOCC2)c(NC(=O)c2ccco2)c1` here?
Answer: > 61.1 µg/mL

Question: For `Cc1cc(C(=O)Nc2ccc(F)cc2)c2ccccc2n1`, which solubility kinetic is on record?
Answer: < 0.3 µg/mL

Question: Which solubility kinetic does the source give for `Cc1cc(NC(=O)C(C)C)ncc1NC(=O)c1ccco1` here?
Answer: > 43.1 µg/mL

Question: Which solubility kinetic does the source give for `Cl.OC(COCc1ccc(Cl)cc1)CN1CCCCC1` (centres undefined) here?
Answer: 46.4 µg/mL

Question: With `O=C(CSC(=S)N1CCCCC1)c1c(F)cccc1F` as the molecule, how does the solubility kinetic read?
Answer: 4 µg/mL (≈ 12.7 µM)

Question: Which solubility kinetic does the source give for `O=C(Cc1ccccc1)c1c[nH]c(C(=O)NC2CCCC2)c1` here?
Answer: 2.6 µg/mL (≈ 8.77 µM)

Question: For `CCOc1cc(NC(=O)CCl)c(OCC)cc1NC(=O)CCl`, which solubility kinetic is on record?
Answer: 6.8 µg/mL (≈ 19.5 µM)

Question: For `CC(=O)NN1C(=O)c2ccccc2NC1c1ccc([N+](=O)[O-])o1` (centres undefined), which solubility kinetic is on record?
Answer: > 47.4 µg/mL

Question: Which solubility kinetic does the source give for `N#CCCN(C(=O)COC(=O)CSc1ccc(Cl)cc1)c1ccccc1` here?
Answer: 56.9 µg/mL (≈ 146 µM)

Question: Which solubility kinetic does the source give for `CCN(CC)c1nc(-c2ccccc2)nc2c1sc(=S)n2CC` here?
Answer: < 0.2 µg/mL

Question: With `COCC(C)n1c(C)cc(C(=O)COC(=O)c2cc(=O)[nH]c3ccccc23)c1C` (centres undefined) as the molecule, how does the solubility kinetic read?
Answer: 11 µg/mL (≈ 27.7 µM)

Question: For `CCCNC(=O)NC(=O)c1cnccc1C(F)(F)F`, which solubility kinetic is on record?
Answer: 34.8 µg/mL (≈ 126 µM)

Question: For `Cc1ccc(OCCC(=O)OCC(=O)Nc2cc(C)cc(C)c2)cc1`, which solubility kinetic is on record?
Answer: 4.3 µg/mL (≈ 12.6 µM)

Question: For `CCOC(=O)CSc1nc(C(C)(C)C)nc2ccccc12`, which solubility kinetic is on record?
Answer: 0.7 µg/mL (≈ 2.3 µM)

Question: Which solubility kinetic does the source give for `CC1(C)OC(C)(C)/C(=C\c2ccc(OCC(N)=O)cc2)C1=O` here?
Answer: 28 µg/mL (≈ 92.3 µM)

Question: With `CCOc1ccc2nc(SCC(=O)NCc3ccc(OC)cc3)[nH]c2c1` as the molecule, how does the solubility kinetic read?
Answer: 20.2 µg/mL (≈ 54.4 µM)

Question: Which solubility kinetic does the source give for `N/C(=N\OC(=O)c1cccc2ccccc12)c1ccncc1` here?
Answer: 31.3 µg/mL (≈ 107 µM)

Question: With `CCOC(=O)CCNC(=O)CCNC(=O)C(c1ccccc1)c1ccccc1` as the molecule, how does the solubility kinetic read?
Answer: > 57.4 µg/mL

Question: For `COc1ccccc1CNc1cc(C)ccn1`, which solubility kinetic is on record?
Answer: 28.8 µg/mL (≈ 126 µM)

Question: With `Cc1cccc(N=C2NC(=O)/C(=C/c3cccnc3)S2)c1C` as the molecule, how does the solubility kinetic read?
Answer: 5.1 µg/mL (≈ 16.5 µM)

Question: With `CCC(=O)Nc1ccc(NCc2cccs2)cc1` as the molecule, how does the solubility kinetic read?
Answer: > 39.1 µg/mL

Question: With `O=C(CCN1C(=O)c2ccccc2C1=O)NCCCn1ccnc1` as the molecule, how does the solubility kinetic read?
Answer: > 49 µg/mL

Question: Which solubility kinetic does the source give for `O=C(Oc1ccc(OC(=O)N2CCCCC2)cc1)N1CCCCC1` here?
Answer: 1.1 µg/mL (≈ 3.31 µM)

Question: Which solubility kinetic does the source give for `O=c1[nH]cccc1-c1nc2ccccc2n1Cc1ccc(Cl)cc1` here?
Answer: > 50.4 µg/mL

Question: Which solubility kinetic does the source give for `CC(C)(C)c1ccc(OC(=O)N2CCOCC2)cc1` here?
Answer: 31.9 µg/mL (≈ 121 µM)

Question: With `COc1cccc(NC(=O)COC(=O)CCSc2ccccc2)c1` as the molecule, how does the solubility kinetic read?
Answer: 39.8 µg/mL (≈ 115 µM)
